The values below come from patent US9248114B2, “Use of 2,5-dihydroxybenzene compounds and derivatives for the treatment of hematological dyscrasias and cancer of an organ” (Action Medicines, S.L., priority 2006, dated 2016).

One assay relates to bFGF-induced fibrosis. In words: bFGF-induced fibrosis around subcutaneously implanted gelatin sponges in rats. The format is in vivo, Sprague-Dawley rats. The settings on record: 100 μM in gelatin sponge with bFGF and heparin, subcutaneous, 7 days. As to the method:
Sterile gelatin sponges (1 mm^3; Curaspon Dental, Clinimed Holding, Zwanenburg, The Netherlands) were subcutaneously implanted in the dorsal region of the neck in Sprague-Dawley rats after the induction of intraperitoneal anesthesia. The animals were split into two groups: group A, the sponges were moistened with 200 μl of saline solution which contained 25 μg/ml of heparin and 10 μg/ml of basic FGF (bFGF); group B, the sponges were moistened in the same solution as in group A, but which solution further contained 2,5-dihydroxybenzoate (100 μM). After 7 days, the sponges and the surrounding subcutaneous fat were removed and histologically analyzed.

A further assay has as its system rat glioma C6 cells. Description: Rat glioma C6 cell proliferation (crystal violet staining). The format is cell-based. The settings on record: 48 h. On the procedure:
The cell line used was rat glioma C6 cells. The cells were cultured as previously described (Cuevas P et al. Neurol Res, 2005). The cells were cultured as adherent cells in Dulbecco's modified Eagle's medium, supplemented with 7.5% (v/v) of fetal bovine serum, 10 μg/ml of streptomycin and 10 units/ml of penicillin. The tumor cells were seeded in 24-well plates at a density of 10,000 cells/well, and were incubated at 37° C. in a humidified chamber with 5% CO2. Once adhered, the cells were treated or not (controls) with 2,5-dihydroxybenzoate at 100, 200, 500 or 1000 μM and they were allowed to proliferate for 48 h. After this time the glioma cell proliferation was evaluated by means of staining the fixed cells with crystal violet. The number of cells is proportional to the amount of retained dye, which was spectrophotometrically determined by measuring the absorbance at 595 nm once the dye was extracted from the cells.
The cell line used was the C6 cell line and the experiment was carried out as described in Example 2. Once adhered, the cells were treated or not (controls) with increasing concentrations of 2,5-DHC (10, 25, 50 and 100 μM) and they were allowed to proliferate for 48 h. After this time the glioma cell proliferation was evaluated by means of staining the fixed cells with crystal violet. The number of cells is proportional to the amount of retained dye, which was determined spectrophotometrically by measuring absorbance at 595 nm once the dye was extracted from the cells.
The cell line used was the C6 cell line and the experiment was carried out as described in examples 2 and 3. Once adhered, the cells were treated or not (controls) with (5A-2HBS) (500 μM) or (2A-5HBS) (500 μM) and they were allowed to proliferate for 48 h. After this time the glioma cell proliferation was evaluated by means of staining the fixed cells with crystal violet. The number of cells is proportional to the amount of retained dye, which was determined spectrophotometrically by measuring the absorbance at 595 nm once the dye was extracted from the cells.

Assay [1] has as its target T1, fibroblast growth factor-1 (FGF-1) (Homo sapiens, UniProt P05230). In words: Mitogenesis induced by FGF-1 in quiescent Balb/c 3T3 fibroblast cultures. The following applies: quiescent Balb/c 3T3 fibroblasts. Format: cell-based. As to the method:
The evaluated compounds were used in the form of potassium salt, except in the first case which used calcium salt. The experiments were carried out as described in Fernandez-Tornero C et al. J Biol Chem, 2003.

Assay [2] has as its target T1, fibroblast growth factor-1 (FGF-1). In words: Crystal diffraction of complexes with FGF-1. The settings on record: co-crystal, electron density contoured at 1σ; acetoxyl groups conserved on binding. On the procedure:
Based on the crystal diffraction of the FGF-1:2-acetoxy-5-hydroxybenzene sulfonic acid, FGF-1:5-acetoxy-2-hydroxybenzene sulfonic acid and FGF-1:2,5-diacetoxybenzene sulfonic acid complexes, the structures of the complexes were calculated and represented. FIGS. 13, 14 and 15, which show the surface of the dyed protein according to its electrostatic potential (light grey, negative charge; dark grey, positive charge; white, regions with no charge), show the manner in which 2-acetoxy-5-hydroxybenzene sulfonic acid, 5-acetoxy-2-hydroxybenzene sulfonic acid and 2,5-diacetoxybenzene sulfonic acid interact, respectively, with FGF-1.

Assay [3] relates to subcutaneous gliomas (rat C6 glioma cells). In words: Progression of established subcutaneous C6 gliomas in rats. The format is in vivo. The following applies: i.p. 100 mg/kg/day for 10 days; for average size (volume) of subcutaneous gliomas: treatment started 5 days after implantation. On the procedure:
Rat C6 glioma cells were cultured as previously described (Cuevas P et al. Neurol Res, 2005). The C6 cells cultured to confluence in 75 cm^2 flasks were removed and implanted under the abdominal skin in anesthetized rats. The existence of a tumor in the implantation area was observed five days after the implantation of the tumor cells. Only the rats in which the existence of a tumor was observed were randomly assigned to be treated with daily intraperitoneal injections of 2,5-dihydroxybenzene sulfonate (DHBS; 100 mg/kg/day), 2,5-diacetoxybenzene sulfonate (DABS; 100 mg/kg/day) or the carrier (0.9% NaCl). After 10 days of treatment, the subcutaneous gliomas were removed and their volume was calculated according to the formula V=4/3π·(L/2)·(A/2)^2 (in mm^3) where L is the larger diameter and A is the smaller diameter, both expressed in mm.

Assay [4] concerns tumor cells of subcutaneous gliomas. In words: Apoptosis in sections of established subcutaneous gliomas in rats. Format: in vivo. The settings on record: 100 mg/kg/day i.p. for 10 days. From the text: Tumor cells elude the programmed cell death process or apoptosis that normal cells experience. Apoptosis induction in tumor cells is one way to confront the development of a tumor. To evaluate the effect of potassium 2,5-dihydroxybenzene sulfonate […] on tumor cell apoptosis, 6 μm thick sections of the subcutaneous gliomas described in example 4 were made. The sections were stained with hematoxylin and eosin and observed at a magnification of 313 times using immersion oil. In these conditions, cell apoptosis is shown by the existence of apoptotic bodies appearing as strongly chromogenic granules in the cell nucleus which is frequently fragmented.

For assay [5], the system named is human prostate cancer PC-3 cells. In words: Subcutaneous PC-3 prostate tumor implantation model in athymic mice. Format: in vivo, athymic mice (Nu/Nu). The settings on record: 100 mg/kg daily i.p. for 15 days. As to the method: 5×10^6 human prostate cancer PC-3 cells were subcutaneously injected in male athymic mice (Nu/Nu) of 6-8 weeks of age and weighing 20-26 g. Ten days after the implantation of the tumor cells, the mice were randomly split into two groups: one of them received a daily injection of potassium 2,5-diacetoxybenzene sulfonate (DABS) by intraperitoneal route at a dose of 100 mg/kg dissolved in saline (0.9% NaCl) whereas the other group received a daily injection of carrier (saline). The treatments were administered for 15 days. The volumes of the tumors induced by the implantation of PC-3 cells were measured through the skin on alternating days using a Vernier caliper. The volume was calculated using the formula V=(D×2d)/2, where D is the larger diameter in mm, d is the smaller diameter in mm and V is the volume in mm3. At the end of treatment, the mice were sacrificed and the tumors were weighed.

Structures are written as SMILES.

T1 sequence (P05230 whole entry, species assumed): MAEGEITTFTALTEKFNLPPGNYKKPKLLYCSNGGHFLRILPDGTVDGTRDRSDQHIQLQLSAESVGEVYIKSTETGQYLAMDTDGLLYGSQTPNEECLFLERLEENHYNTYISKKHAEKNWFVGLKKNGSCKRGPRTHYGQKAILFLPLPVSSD

As for `O=C(O)c1cc(O)ccc1O` [2,5-dihydroxybenzoate, 2,5-dihydroxybenzoic acid], the “bFGF-induced fibrosis (fibroblasts in septa of connective tissue of adipose tissue)” value in the assay on bFGF-induced fibrosis was “reduces bFGF-induced fibrosis”. The “rat glioma C6 cell proliferation, significance of the effect” value in the assay on rat glioma C6 cells (500 μM) and in the assay on rat glioma C6 cells (1000 μM) was “statistically significant” each time. The “rat glioma C6 cell proliferation (absorbance at 595 nm)” value in the assay with rat glioma C6 cells (100, 200, 500 or 1000 μM) is given as “inhibited rat glioma C6 cell proliferation in a concentration-dependent manner”.

With `CC(=O)Oc1ccc(O)cc1S(=O)(=O)[O-].[K+]` [2A-5HBS, potassium 2-acetoxy-5-hydroxybenzene sulfonate], the “rat glioma cell proliferation” value in the assay on rat glioma C6 cells (500 μM) is given as “caused the inhibition of rat glioma cell proliferation”. The “mitogenesis induced by FGF-1” value in assay [1] is reported as “inhibition of mitogenesis”. Moreover, the “binding site on FGF-1 in the crystal complex” value (shortened to “binding site”) in assay [2] is reported as “occupy a site that is very close to the one that has been described occupied by 2,5-dihydroxybenzene sulfonic acid”.

Consider `CC(=O)Oc1ccc(O)c(S(=O)(=O)[O-])c1.[K+]` [5A-2HBS, potassium 5-acetoxy-2-hydroxybenzene sulfonate], for which the “rat glioma cell proliferation” value in the assay on rat glioma C6 cells (500 μM) is recorded as “caused the inhibition of rat glioma cell proliferation”. The “mitogenesis induced by FGF-1” value in assay [1] is “inhibition of mitogenesis”. The “binding site” value in assay [2] is “occupy a site that is very close to the one that has been described occupied by 2,5-dihydroxybenzene sulfonic acid”.

Turning to `CC(=O)Oc1ccc(OC(C)=O)c(S(=O)(=O)[O-])c1.[K+]` [DABS, potassium 2,5-diacetoxybenzene sulfonate], in assay [3], the “probability of being tumor-free (χ2 test) versus group treated with DHBS” value is “greater probability of being tumor-free” and the “average size (volume) of subcutaneous gliomas” value is on record as “even less”. Besides, in assay [4], the “tumor cells in apoptosis in glioma sections (hematoxylin and eosin)” value is “a large number of tumor cells in apoptosis”. The “weight of the extracted tumor when treatment ended” value in assay [5] was “significant reduction”. Further, the “tumor growth (tumor volume measured through the skin)” value in assay [5] (started 10 days after implantation) is “significantly reduced”. For the same compound, the “mitogenesis induced by FGF-1” value in assay [1] is recorded as “inhibition of mitogenesis”. Moreover, the “binding site” value in assay [2] is listed as “occupy a site that is very close to the one that has been described occupied by 2,5-dihydroxybenzene sulfonic acid”.

On to `O=S(=O)([O-])c1cc(O)ccc1O.[K+]` [DHBS, potassium 2,5-dihydroxybenzene sulfonate, reference compound], for which, in assay [3], the “average size (volume) of subcutaneous gliomas” value is reported as “less than that of the rats treated with carrier”. The “mitogenesis induced by FGF-1” value in assay [1] is recorded as “inhibition of the mitogenesis”.
